Experimental data published in patent US20220096512A1, “WATER-BASED ANTIFUNGAL COMPOSITIONS” (Sigma-Aldrich Co. LLC, priority 2019, published 2022).
≈ marks a conversion by molar mass, not a printed value.

Assays:
Aspergillus niger = experiment: Diffusion disc MIC testing against Aspergillus niger; format: cell-based; conditions: diffusion paper disc, 10 μL applied, incubated overnight at 30° C., average of three experiments
Experimental: (§1) Minimum inhibitory concentration (MIC) testing was determined for the inventive nystatin formulation described herein, along with comparative antifungal agents.
(§2) Nystatin (Solid) and amphotericin were dissolved in DMF in 1 mg/mL. Econazole nitrate was dissolved in PBS to achieve 1 mg/mL. Nystatin formulation diluted with PBS to achieve the same potency as Nystatin (Solid).
(§3) Antibiotic medium 19 was sterilized in autoclave, after sterilization when the temperature lowered to 45° C. and 1 mL from spore suspension was added. 8 mL from this mixture dispensed to each petri dish.
(§4) On each dish 6 sterile diffusion paper disc were placed, 10 μL from each antibiotic were applied in 10, 15, 20, 25, 30, 35 μg/mL concentrations. Where MIC concentrations were below 10, lower concentrations were used: 2, 5, 7.5 μg/mL
(§5) The petri dishes were incubated overnight at 30° C. The MIC were determined as the lower concentration that inhibition could be visualized.

Candida albicans = experiment: Diffusion disc MIC testing against Candida albicans; format: cell-based; conditions: diffusion paper disc, 10 μL applied, incubated overnight at 30° C., average of three experiments
Experimental: as §1, §2, §3, §4, §5

Molecule	MIC (Aspergillus niger; Aspergillus niger, read-out: Inhibition of Aspergillus niger (MIC, lower concentration at which inhibition could be visualized))	Inhibition of Candida albicans (MIC, lower concentration at which inhibition could be visualized) (Candida albicans)	Inhibition of Aspergillus niger (MIC, lower concentration at which inhibition could be visualized) (Aspergillus niger)	Inhibition of Aspergillus niger (MIC, lower concentration at which inhibition could be visualized) (Aspergillus niger; listed as Nystatin methyl ester)
C[C@@H]1[C@H](O)[C@@H](C)/C=C/C=C/C=C/C=C/C=C/C=C/C=C/[C@H](O[C@@H]2O[C@H](C)[C@@H](O)[C@H](N)[C@@H]2O)C[C@@H]2O[C@](O)(C[C@@H](O)C[C@@H](O)[C@H](O)CC[C@@H](O)C[C@@H](O)CC(=O)O[C@H]1C)C[C@H](O)[C@H]2C(=O)O [Amphotericin, Amphotericin B]	31.5 µg/mL (≈ 34.1 µM)			
Clc1ccc(COC(Cn2ccnc2)c2ccc(Cl)cc2Cl)cc1 (stereo not shown) [Econazole, Econazole nitrate]		No inhibition	No inhibition	
C[C@@H]1[C@H](O)[C@@H](C)/C=C/C=C/CC/C=C/C=C/C=C/C=C/C(O[C@H]2O[C@H](C)[C@@H](O)[C@H](N)[C@@H]2O)CC2O[C@](O)(CC(O)C(O)CCC(O)CC(O)CC(O)CC(=O)O[C@H]1C)CC(O)C2C(=O)O (stereo partly shown) [Nystatin]		14 µg/mL	22.5 µg/mL	
Nystatin Methyl ester		30 µg/mL	No inhibition	no observed inhibition
Polymixin B		No inhibition	No inhibition	
